In patent publication EP1960783B1, “REDUCTION OF NON-SPECIFIC BINDING IN ASSAYS” (Siemens Healthcare Diagnostics Inc., priority 2005, dated 2007):

Test: Blocking of non-specific binding by candidate blocker additives in the LOCI assay for CTNI (troponin) on the VISTA analyzer
Conditions: for % supression*: NSB 1 sample vs PBS control
Text: Samples from a local blood bank were screened to determine if they produced a response with the troponin assay. Any donor sample that produced a positive result with the troponin test was assumed to be a false positive. This was confirmed by testing all samples that gave positive responses with at least one commercially available reference method. For the results reported here, the test results were confirmed using the Dade Behring DIMENSION Rxl® troponin (CTNI) test. The false positive samples were further screened for known causes of false positivity. The primary root cause of false positive results is human antibodies that bind mouse antibodies, an interference known as "HAMA" (Human Anti-Mouse Antibodies). The screening process used to determine if samples have HAMA interference consists of adding known HAMA binders (also known as blocking agents) that are available commercially from Roche and Scantibodies. If a sample that gives a positive response becomes normal when HAMA binders are added to the sample, the sample is assumed to be a false positive due to HAMA. Some samples were not corrected by the addition of HAMA binders. These were used in the testing described in the following examples.
An assay for CTNI, described in "Quantitation of Cardiac Markers by LOCI™ Technology", R. Bauer, et al., (Clinical Chemistry 2004; 50(6 supplement): A5) was used for evaluation of the candidate blocker compounds. The reagents for doing this assay consist of an antibody coated acceptor latex (acceptor bead) that emits light when contacted by singlet oxygen, a biotinylated antibody, and a streptavidin coated donor latex that produces singlet oxygen when illuminated by light of wavelengths that are absorbed by a photosensitizer dye dissolved in the latex particles. The streptavidin of the donor latex was bound to the latex particles through a spacer of dextran with aldehyde linking groups. In the case of the acceptor beads, the antibody was connected to the particles through a linking group or spacer that results from a combination of aminodextran and dextranaldehyde. For both latex reagents, the excess aldehyde groups remaining after linkage of the proteins are reacted with carboxymethoxyamine to quench the aldehydes.
These reagents are packaged in FLEX® containers that serve as reservoirs for the VISTA™ automated clinical analyzer that is described in "Development and Initial Performance of a New High-Volume Multi-Detector Analyzer: The DIMENSION VISTA™ Integrated System", T. Evers, et al. (Clinical Chemistry 2004; 50(6 supplement)) A31. The test kits and the analyzer are available from Dade Behring Inc., Newark, DE, USA. Candidate blocking reagents (soluble protein-polysaccharide conjugates (preformed or formed in situ) that reduce or eliminate interference from sample components) were tested by adding them (or a precursor such as, e.g., dextran aldehyde) to the biotinylated antibody reagent in prototype FLEX® containers or in some cases directly to the sample. FLEX® containers are from Dade Behring Inc.
Each test result shown in the tables below is the average of four test results. In general, the precision of the measurements was <2% CV for calibrators and for measurements of discrepant samples in those cases where effective blockers were used. The testing was done on different days with different instruments, so many control tests were needed to enable comparison of different sets of data.
Dextranaldehyde reacts with proteins to form Schiff's bases between the aldehyde functionality and the lysine amino groups of proteins thereby producing a conjugate. This reaction was accomplished by adding 5 mg/mL 500 kDa dextranaldehyde to the biotinylated antibody reagent of the CTNI FLEX® container, which contains 50 mg/mL of BSA in a pH 7.2 HEPES buffer with 1mg/mL 100-200 KDa dextran. […]

[1] = Table 4, additive 1 mg/mL added to sample
[2] = Table 4, additive 1 mg/mL added to calibrators and sample, held half an hour before testing
[3] = Table 5 Run 1, additive 5 mg/mL in biotinylated antibody reagent
[4] = Table 5 Run 2, additive 5 mg/mL in biotinylated antibody reagent

BSA conjugate formed in situ: conjugate formed by adding 5 mg/mL 500 kDa dextranaldehyde to reagent containing 50 mg/mL BSA
blocking the nonspecific binding (summary in words of Table 2, discrepant samples NSB 1-29): nearly bringing the falsely elevated results to the same level as the zero calibrator
blocking the interference (summary in words of Table 7, compared with the carboxymethyloxime derivative of dexal): significantly more effective

100-200-Dexal-BSA-30: dextranaldehyde prepared from 100-200 kDa dextran conjugated with BSA at 100 parts dextranaldehyde to 30 parts BSA
% supression* [1]: 99.7%
Test Result Counts Cal 0 [2]: 8,460 Counts
Test Result Counts Cal 8 [2]: 969,563 Counts
Test Result Counts NSB 1 [2]: 11,242 Counts

100-200-Dexal-BSA-50, second lot: 100-200 kDa dextranaldehyde conjugated with BSA, 100 parts to 50 parts
% supression* [3]: 100.00%
Test Result Counts Cal 0 [3]: 7,136 Counts
Test Result Counts Cal 8 [3]: 807,327 Counts
Test Result Counts NSB 1 [3]: 7,134 Counts

100-200-Dexal-ovalbumin-100: 100-200 kDa dextranaldehyde conjugated with ovalbumin, 100 parts to 100 parts
% supression* [4]: 95.93%
Test Result Counts Cal 0 [4]: 6,370 Counts
Test Result Counts Cal 8 [4]: 734,218 Counts
Test Result Counts NSB 1 [4]: 39,569 Counts

100-200-Dexal-BSA-50, first lot: 100-200 kDa dextranaldehyde conjugated with BSA, 100 parts to 50 parts
% supression* [3]: 99.95%
Test Result Counts Cal 0 [3]: 6,578 Counts
Test Result Counts Cal 8 [3]: 743,213 Counts
Test Result Counts NSB 1 [3]: 7,005 Counts

100-200-Dexat-ovalbumin-50: 100-200 kDa dextranaldehyde conjugated with ovalbumin, 100 parts to 50 parts
% supression* [4]: 99.26%
Test Result Counts Cal 0 [4]: 6,573 Counts
Test Result Counts Cal 8 [4]: 749,661 Counts
Test Result Counts NSB 1 [4]: 12,630 Counts

100-200-Dexal-BSA-100: 100-200 kDa dextranaldehyde conjugated with BSA, 100 parts to 100 parts
% supression* [3]: 99.97%
Test Result Counts Cal 0 [3]: 7,320 Counts
Test Result Counts Cal 8 [3]: 823,386 Counts
Test Result Counts NSB 1 [3]: 7,544 Counts

100-200-Dexal-BSA-10: dextranaldehyde from 100-200 kDa dextran conjugated with BSA, 100 parts dextranaldehyde to 10 parts BSA
% supression* [1]: 98.2%
Test Result Counts Cal 0 [2]: 8,389 Counts
Test Result Counts Cal 8 [2]: 954,766 Counts
Test Result Counts NSB 1 [2]: 26,160 Counts
